Measured values: patent US10844015B2, “Pyridine dicarboxamide derivatives as bromodomain inhibitors” (GlaxoSmithKline Intellectual Property (No. 2) Limited, priority 2016, dated 2020)

Assays:
[1] = target: T1, BRD4 BD2 (Homo sapiens, UniProt O60885, Y97A); assay: BRD4 BD2 TR-FRET competition assay; type: binding; conditions: single mutant tandem BRD4 protein; for IC50: read-out: pIC50 in the BRD4 BD2 assay (converted)
T1 construct: BRD4 (1-477) (Y97A) and (Y390A); made in house; host or cells: E. coli (pET15b vector)
Experimental: Time Resolved Fluorescence Resonance Energy Transfer (TR-FRET) Assay
Bromodomain binding was assessed utilising a time resolved fluorescent resonance energy transfer (TR-FRET) competition assay. To enable this approach a known, high affinity, pan-BET interacting small molecule was labelled with Alexa Fluor® 647, which is a far-red-fluorescent dye (Reference Compound X). Reference Compound X acts as a reporter of bromodomain binding and is the acceptor fluorophore component of the TR-FRET pair. Europium chelate, conjugated to an anti-6*His antibody, was utilised as the donor fluorophore in the TR-FRET pair. […] A TR-FRET signal is generated when the donor and acceptor fluorophores are in close proximity, between 20-80 Å, which is enabled in this assay by binding of Reference Compound X to the bromodomain protein.
In order to generate a TR-FRET signal, donor fluorophore is excited by a laser at A337 nm, which subsequently leads to emission at A618 nm. If the acceptor fluorophore is in close proximity then energy transfer can occur, which leads to emission of Alexa Fluor® 647 at A665 nm. In the presence of competitor compound, Reference Compound X can be displaced from binding to the bromodomain. If displacement occurs, the acceptor fluorophore is no longer in proximity to the donor fluorophore, which prevents fluorescent energy transfer and, subsequently, a loss of Alexa Fluor® 647 emission at λ665 nm.
(§1) The competition of the compounds of formula (I) with Reference Compound X for binding to the BET family (BRD2, BRD3, BRD4 and BRDT) was assessed using protein truncates spanning both bromodomain 1 (BD1) and bromodomain 2 (BD2). In order to monitor differential binding to either BD1 or BD2, single residue mutations of key tyrosines to alanine were made in the acetyl lysine binding pockets. To validate this approach, a double residue mutant tandem domain protein was produced for each of the BET family members. Utilising a Fluorescence Polarisation approach, binding affinities for each of the single and double mutants for Reference Compound X were determined.
Final purification was completed by Superdex 200 prep grade size exclusion column. Purified protein was stored at −80° C. in 20 mM HEPES pH 7.5 and 100 mM NaCl.
Protocol for Bromodomain BRD2, 3, 4 and T, BD1+BD2 Mutant TR-FRET Competition Assays:
(§2) All assay components were dissolved in an assay buffer composing of 50 mM HEPES pH7.4, 50 mM NaCl, 5% Glycerol, 1 mM DTT and 1 mM CHAPS. […] The solution containing bromodomain and Reference Compound X was added to dose response dilutions of test compound or DMSO vehicle (a maximum of 0.5% DMSO is used in this assay) in Greiner 384 well black low volume microtitre plates and subsequently incubated for 30 minutes at room temperature. An equal volume of 3 nM of anti-6*His Europium chelate was added to all wells, followed by a further 30 minute incubation at room temperature. TR-FRET was detected using a Perkin Elmer Multimode plate reader, by exciting the donor fluorophore at λ337 nm and subsequently, after a delay of 50 μsecs, measuring emission of the donor and acceptor fluorophores at λ615 nm and λ665 nm, respectively. In order to control these assays, 16 replicates each of uninhibited (DMSO vehicle) and inhibited (10*IC50 concentrations of Example 11 of WO 2011/054846A1) TR-FRET assays were included on every microtitre plate.
cA four parameter curve fit of the following form was then applied: y=a+((b−a)/(1+(10^x/10^c)^d) • Where ‘a’ is the minimum, ‘b’ is the Hill slope, ‘c’ is the pIC50 and ‘d’ is the maximum.
(§3) All compounds (Examples) were each tested in the BRD4 BD1 and the BRD4 BD2 TR-FRET assays essentially as described above. Those of skill in the art will recognise that in vitro binding assays and cell-based assays for functional activity are subject to experimental variability. Accordingly, it is to be understood that the pIC50 values given below are exemplary only. pIC50 values are expressed as log10 units.

[2] = system: BRD4 BD2 over BRD4 BD1; assay: Calculation of selectivity for BRD4 BD2 over BRD4 BD1 from the TR-FRET assays; type: binding, Human; conditions: for fold selective for BRD4 BD2 over BRD4 BD1: stated from the log unit selectivity; for selectivity for BRD4 BD2 over BRD4 BD1: BRD4 BD2 pIC50 − BRD4 BD1 pIC50, in at least one of the TR-FRET assays
Experimental: as §1, §2, §3
Calculation of Selectivity for BRD4 BD2 Over BRD4 BD1
Selectivity for BRD4 BD2 over BRD4 BD1 was calculated as follows: Selectivity=BRD4BD2pIC50−BRD4BD1pIC50

[3] = system: BET family (BRD2, BRD3, BRD4 and BRDT) tandem bromodomain proteins; assay: Fluorescence Polarisation binding affinities of single and double mutant tandem BET proteins for Reference Compound X; design: species or system Human
Experimental: as §1, with “determined. […] The affinities of the single mutated bromdomain tandem proteins for Reference Compound X were equi-potent with the corresponding non-mutated BET protein. […] In the TR-FRET competition assay, Reference Compound X is used at a concentration that is equivalent to the Kd for the non-mutated bromodomain, which ensures that no binding at the mutated bromodomain is detected.” for “determined.”
Recombinant Human Bromodomains [(BRD2 (1-473) (Y113A) and (Y386A), BRD3 (1-435) (Y73A) and (Y348A) BRD4 (1-477) (Y97A) and (Y390A) and BRDT (1-397) (Y66A) and (Y309A)] were expressed in E. coli cells (in pET15b vector for BRD2/3/4 and in pET28a vector for BRDT) with a 6-His tag at the N-terminal. The His-tagged Bromodomain pellet was resuspended in 50 mM HEPES (pH7.5), 300 mM NaCl, 10 mM imidazole & 1 μL/mL protease inhibitor cocktail and extracted from the E. coli cells using sonication and purified using a nickel sepharose high performance column, the proteins were washed and then eluted with a linear gradient of 0-500 mM imidazole with buffer 50 mM HEPES (pH7.5), 150 mM NaCl, 500 mM imidazole, over 20 column volumes. Final purification was completed by Superdex 200 prep grade size exclusion column. Purified protein was stored at −80° C. in 20 mM HEPES pH 7.5 and 100 mM NaCl. Protein identity was confirmed by peptide mass fingerprinting and predicted molecular weight confirmed by mass spectrometry.

Structure (SMILES) | IC50 [1] | fold selective for BRD4 BD2 over BRD4 BD1 [2] | selectivity for BRD4 BD2 over BRD4 BD1 [2] | also measured
CNC(=O)c1cc(C(=O)N[C@H]2C[C@@H]2C)cc(Cc2cncc3[nH]ccc23)n1 [Example 46, 6-((1H-Pyrrolo[2,3-c]pyridin-4-yl)methyl)-N^2-methyl-N^4-((1S,2S)-2-methylcyclopropyl)pyridine-2,4-dicarboxamide] | 79.4 nM | at least 100 fold | 2.8 log unit | –
CNC(=O)c1cc(C(=O)N[C@H]2C[C@@H]2C)cc(C(OC)c2ccnc3[nH]ccc23)n1 (relative stereo) [Example 106, 6-((R*-Methoxy(1H-pyrrolo[2,3-b]pyridin-4-yl)methyl)-N^2 methyl-N^4-((1S,2S)-2-methylcyclopropyl)pyridine-2,4-dicarboxamide] | – | at least 1000 fold | – | pIC50 in the BRD4 BD2 assay [1]: 7.6 log10 units
COc1ccc2c(c1)C(c1ccc(Cl)cc1)=N[C@@H](CC(=O)NCCCCCNC(=O)CCCCCC1(C)/C(=C/C=C/C=C/C3=[N+](CCCCS(=O)(=O)O)c4ccc(S(=O)(=O)O)cc4C3(C)C)N(CCCCS(=O)(=O)[O-])c3ccc(S(=O)(=O)O)cc31)c1nnc(C)n1-2 (stereo partly drawn) [Reference Compound X] | – | – | – | reduction in Kd (affinity) of double mutant tandem proteins in comparison to wild type tandem BET proteins ([3]; double residue (Tyr to Ala) mutant tandem domain proteins): > 1000 fold; reduction of Kd of the interaction between the mutated bromodomain and Reference Compound X ([3]; single mutation of Tyrosine to Alanine): > 1000 fold; affinity of single mutated bromodomain tandem proteins versus corresponding non-mutated BET protein ([3]; single residue (Tyr to Ala) mutants): equi-potent

More lines, main results first:

IC50 [1] | Structure (SMILES) | fold selective for BRD4 BD2 over BRD4 BD1 [2] | selectivity for BRD4 BD2 over BRD4 BD1 [2] | also measured
1000 to 10000 nM | CNC(=O)c1cc(C(=O)N[C@H]2C[C@@H]2C)cc(Cn2ccccc2=O)n1 [Example 54, N^2-Methyl-N^4-((1S,2S)-2-methylcyclopropyl)-6-((2-oxopyridin-1(2H)-yl)methyl)pyridine-2,4-dicarboxamide] | – | – | –
39.8 nM | CNC(=O)c1cc(C(=O)N[C@H]2C[C@@H]2C)cc(Cc2ccnc3[nH]ccc23)n1 [Example 80, 6-((1H-Pyrrolo[2,3-b]pyridin-4-yl)methyl)-N^2-methyl-N^4-((1S,2S)-2-methylcyclopropyl)pyridine-2,4-dicarboxamide] | at least 1000 fold | – | –
31.6 nM | CNC(=O)c1cc(C(=O)N[C@H]2C[C@@H]2C)cc(Cc2cccc3c2CCN3)n1 [Example 83, 6-(indolin-4-ylmethyl)-N^2-methyl-N^4-((1S,2S)-2-methylcyclopropyl)pyridine-2,4-dicarboxamide] | at least 100 fold | 2.9 log unit | –
1000 to 10000 nM | CNC(=O)c1cc(C(=O)NC2CC2)cc([C@@H](O)c2ccccc2C)n1 (single isomer, unassigned) [Example 116, (S*)-N^4-cyclopropyl-6-(hydroxy(o-tolyl)methyl)-N^2-methylpyridine-2,4-dicarboxamide] | – | – | –
12.6 nM | CNC(=O)c1cc(C(=O)NC2CC2C)cc(C(C)c2cncc3[nH]ccc23)n1 [Example 49, 6-((S*-1-(1H-Pyrrolo[2,3-c]pyridin-4-yl)ethyl)-N^2-methyl-N^4 ((1S,2S)-2-methylcyclopropyl)pyridine-2,4-dicarboxamide] | at least 100 fold | 2.8 log unit | –
